Reference: ChEMBL document CHEMBL5113403, “Design, synthesis, and biological evaluation of novel pyrazolo [3,4-d]pyrimidine derivatives as potent PLK4 inhibitors for the treatment of TRIM37-amplified breast cancer” (Eur J Med Chem, 2022)

How the values were obtained:
[1] = biological target: Serine/threonine-protein kinase PAK 4 (Homo sapiens, UniProt O96013); assay: Inhibition of PAK4 (unknown origin) incubated for 60 mins by time-resolved HTRF assay
[2] = Plasma stability in human assessed as compound remaining at 100 uM measured after 30 mins by LC-MS/MS analysis relative to control; assay type: ADME, cell-free; conditions: read-out: Stability
[3] = Metabolic stability in human liver microsomes assessed as half-life at 100 uM measured upto 60 mins in the presence of NADPH by LC-MS/MS analysis; assay type: ADME, Microsome
[4] = Metabolic stability in human liver microsomes assessed as intrinsic clearance at 100 uM measured upto 60 mins in the presence of NADPH by LC-MS/MS analysis; assay type: ADME, Microsome; conditions: 1 h
[5] = Metabolic stability in human liver microsomes assessed as compound remaining at 100 uM measured after 60 mins in the presence of NADPH by LC-MS/MS analysis; assay type: ADME, Microsome; conditions: read-out: Stability
CYP1A2 = biological target: T1, CYP1A2 (Homo sapiens, UniProt P05177); assay: Inhibition of CYP1A2 in human liver microsomes at 10 uM preincubated for 10 mins followed by addition of NADPH-regenerating system and measured after 15 mins by LC-MS/MS analysis relative to control; assay type: ADME, Microsome; conditions: time 25 min
T1 sequence (P05177 whole entry): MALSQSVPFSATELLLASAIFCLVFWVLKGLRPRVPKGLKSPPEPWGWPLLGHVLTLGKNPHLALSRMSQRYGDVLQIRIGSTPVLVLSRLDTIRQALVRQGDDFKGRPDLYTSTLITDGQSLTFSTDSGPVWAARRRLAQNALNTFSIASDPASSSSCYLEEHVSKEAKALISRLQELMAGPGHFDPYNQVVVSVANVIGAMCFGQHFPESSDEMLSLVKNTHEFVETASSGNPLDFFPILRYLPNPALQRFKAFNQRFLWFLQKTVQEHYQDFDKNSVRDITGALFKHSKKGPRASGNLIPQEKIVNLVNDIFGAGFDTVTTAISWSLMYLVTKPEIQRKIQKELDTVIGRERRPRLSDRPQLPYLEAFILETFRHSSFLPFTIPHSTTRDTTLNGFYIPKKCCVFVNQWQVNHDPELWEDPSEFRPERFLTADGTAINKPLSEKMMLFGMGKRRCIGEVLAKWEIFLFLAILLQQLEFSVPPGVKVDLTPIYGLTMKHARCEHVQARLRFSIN

CYP2C19 = CYP2C19 (Homo sapiens, UniProt P33261); assay: Inhibition of CYP2C19 in human liver microsomes at 10 uM preincubated for 10 mins followed by addition of NADPH-regenerating system and measured after 15 mins by LC-MS/MS analysis relative to control; assay type: ADME, Microsome; conditions: time 25 min
Chain of CYP2C19 (P33261 whole entry): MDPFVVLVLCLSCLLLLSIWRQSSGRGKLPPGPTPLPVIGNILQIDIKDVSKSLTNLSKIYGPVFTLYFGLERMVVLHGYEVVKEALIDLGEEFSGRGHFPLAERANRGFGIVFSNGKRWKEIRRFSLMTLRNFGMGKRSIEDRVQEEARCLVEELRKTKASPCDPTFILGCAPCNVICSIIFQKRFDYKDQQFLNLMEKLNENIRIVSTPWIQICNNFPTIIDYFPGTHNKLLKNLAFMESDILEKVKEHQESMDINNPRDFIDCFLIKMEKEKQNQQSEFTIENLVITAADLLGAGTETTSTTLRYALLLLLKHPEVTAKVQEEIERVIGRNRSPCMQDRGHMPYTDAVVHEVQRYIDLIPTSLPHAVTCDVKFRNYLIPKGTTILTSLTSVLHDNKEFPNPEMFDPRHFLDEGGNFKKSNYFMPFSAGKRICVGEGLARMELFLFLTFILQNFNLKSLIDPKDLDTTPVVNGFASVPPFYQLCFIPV

[6] = Tmax in Sprague-Dawley rat at 10 mg/kg, po by LC-MS/MS analysis; assay type: ADME, organism-based; conditions: in vivo
[7] = Cmax in Sprague-Dawley rat at 10 mg/kg, po by LC-MS/MS analysis; assay type: ADME, organism-based; parameters: dose 10 mg/kg, route po; conditions: in vivo
[8] = AUClast in Sprague-Dawley rat at 10 mg/kg, po by LC-MS/MS analysis; assay type: ADME, organism-based; parameters: time 0 - last, dose 10 mg/kg, route po; conditions: in vivo
[9] = MRT in Sprague-Dawley rat at 10 mg/kg, po by LC-MS/MS analysis; assay type: ADME, organism-based; conditions: in vivo
[10] = Half-life in Sprague-Dawley rat at 3 mg/kg, iv by LC-MS/MS analysis; assay type: ADME, organism-based; conditions: in vivo
[11] = Volume of distribution at steady state in Sprague-Dawley rat at 3 mg/kg, iv by LC-MS/MS analysis; assay type: ADME, organism-based; conditions: in vivo, read-out: Vdss
MCF7 [12] = assay: Induction of apoptosis in human MCF7 cells assessed as necrotic cells at 2.5 uM incubated for 48 hrs by Annexin-V-FITC/PI staining based flow cytometric analysis (reference value: 0.18 %); assay type: functional
MCF7 [13] = assay: Induction of apoptosis in human MCF7 cells assessed as viable cells at 1 uM incubated for 48 hrs by Annexin-V-FITC/PI staining based flow cytometric analysis (reference value: 97 %); assay type: functional
MCF7 [14] = assay: Induction of apoptosis in human MCF7 cells assessed as early apoptotic cells at 1 uM incubated for 48 hrs by Annexin-V-FITC/PI staining based flow cytometric analysis (reference value: 2.83 %); assay type: functional
MCF7 [15] = assay: Induction of apoptosis in human MCF7 cells assessed as late apoptotic cells at 0.50 uM incubated for 48 hrs by Annexin-V-FITC/PI staining based flow cytometric analysis (reference value: 0.019 %); assay type: functional; conditions: dose 0.5 µM
MCF7 [16] = assay: Induction of apoptosis in human MCF7 cells assessed as early apoptotic cells at 0.25 uM incubated for 48 hrs by Annexin-V-FITC/PI staining based flow cytometric analysis (reference value: 2.83 %); assay type: functional
MCF7 [17] = assay: Induction of apoptosis in human MCF7 cells assessed as necrotic cells at 0.25 uM incubated for 48 hrs by Annexin-V-FITC/PI staining based flow cytometric analysis (reference value: 0.18 %); assay type: functional
MCF7 [18] = assay: Induction of apoptosis in human MCF7 cells assessed as total apoptotic cells at 0.10 uM incubated for 48 hrs by Annexin-V-FITC/PI staining based flow cytometric analysis relative to control; assay type: functional; conditions: dose 0.1 µM
MCF7 [19] = assay: Induction of apoptosis in human MCF7 cells assessed as total apoptotic cells at 0.25 uM incubated for 48 hrs by Annexin-V-FITC/PI staining based flow cytometric analysis relative to control; assay type: functional
MCF7 [20] = assay: Induction of apoptosis in human MCF7 cells assessed as total apoptotic cells at 0.50 uM incubated for 48 hrs by Annexin-V-FITC/PI staining based flow cytometric analysis relative to control; assay type: functional; conditions: dose 0.5 µM
MCF7 [21] = assay: Induction of cell cycle arrest in human MCF7 cells assessed as S phase cells at 2.5 uM measured after 48 hrs by flow cytometry analysis (reference value: 9.31 %); assay type: functional
MCF7 [22] = assay: Induction of cell cycle arrest in human MCF7 cells assessed as less G1 phase cells at 2.5 uM measured after 48 hrs by flow cytometry analysis (reference value: 0.44 %); assay type: functional
MCF7 [23] = assay: Induction of cell cycle arrest in human MCF7 cells assessed as greater G1 phase cells at 2.5 uM measured after 48 hrs by flow cytometry analysis (reference value: 0.78 %); assay type: functional
MCF7 [24] = assay: Induction of cell cycle arrest in human MCF7 cells assessed as G2 phase cells at 0.50 uM measured after 48 hrs by flow cytometry analysis (reference value: 31.8 %); assay type: functional; conditions: dose 0.5 µM
MCF7 [25] = assay: Induction of cell cycle arrest in human MCF7 cells assessed as less G1 phase cells at 0.50 uM measured after 48 hrs by flow cytometry analysis (reference value: 0.44 %); assay type: functional; conditions: dose 0.5 µM
MCF7 [26] = assay: Induction of cell cycle arrest in human MCF7 cells assessed as decrease in G1 phase cells at 0.25 uM measured after 48 hrs by flow cytometry analysis (reference value: 56.9 %); assay type: functional; parameters: scale not given: the % may be the effect or the level left
MCF7 [27] = assay: Induction of cell cycle arrest in human MCF7 cells assessed as G2 phase cells at 0.25 uM measured after 48 hrs by flow cytometry analysis (reference value: 31.8 %); assay type: functional
MCF7 [28] = assay: Induction of cell cycle arrest in human MCF7 cells assessed as greater G1 phase cells at 0.25 uM measured after 48 hrs by flow cytometry analysis (reference value: 0.78 %); assay type: functional
MCF7 [29] = assay: Induction of cell cycle arrest in human MCF7 cells assessed as G2 phase cells at 0.10 uM measured after 48 hrs by flow cytometry analysis (reference value: 31.8 %); assay type: functional; conditions: dose 0.1 µM

Chain of Serine/threonine-protein kinase PAK 4 (O96013 whole entry): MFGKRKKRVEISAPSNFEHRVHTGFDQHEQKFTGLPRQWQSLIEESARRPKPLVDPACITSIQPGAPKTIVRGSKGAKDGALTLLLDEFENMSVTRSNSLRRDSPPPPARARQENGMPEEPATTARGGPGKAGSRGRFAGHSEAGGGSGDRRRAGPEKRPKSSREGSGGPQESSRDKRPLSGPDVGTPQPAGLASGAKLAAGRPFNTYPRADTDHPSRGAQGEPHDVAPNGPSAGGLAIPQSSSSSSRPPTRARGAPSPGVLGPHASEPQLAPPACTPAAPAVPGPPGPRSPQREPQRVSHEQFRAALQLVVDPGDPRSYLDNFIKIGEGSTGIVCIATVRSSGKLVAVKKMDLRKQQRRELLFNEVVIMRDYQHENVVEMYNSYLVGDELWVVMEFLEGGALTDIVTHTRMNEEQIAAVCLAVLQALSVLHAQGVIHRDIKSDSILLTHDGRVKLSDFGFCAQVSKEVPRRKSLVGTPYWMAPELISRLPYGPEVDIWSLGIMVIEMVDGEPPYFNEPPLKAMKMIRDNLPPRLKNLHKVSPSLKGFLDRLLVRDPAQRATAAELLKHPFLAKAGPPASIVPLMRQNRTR

Cc1cc(Nc2nc(NCc3ccc(F)cc3F)nc3c2cnn3C2CCOCC2)n[nH]1
IC50 [1]: 1.75 µM
remaining at 0.5 h, 100 µM [2]: 96.6%
half-life at 100 µM [3]: 0.493 h
CLint [4]: 46.8 µL/min/mg
remaining at 1 h, 100 µM [5]: 25.2%
inhibition at 0.25 h, 10 µM (CYP1A2): 21.2%
inhibition at 0.25 h, 10 µM (CYP2C19): 32.9%
Tmax [6]: 1.33 h
Cmax [7]: 0.0811 µg/mL
AUC(0-t) [8]: 0.286 µg·h/mL
MRT [9]: 3.13 h
half-life [10]: 1.05 h
Vd [11]: 3.02 L/kg
Activity (MCF7 [12]): 0.98%
Activity (MCF7 [13]): 27.5%
Activity (MCF7 [14]): 65%
Activity (MCF7 [15]): 7.58%
Activity (MCF7 [16]): 24.8%
Activity (MCF7 [17]): 1.97%
Activity (MCF7 [18]): 24.04%
Activity (MCF7 [19]): 30.98%
Activity (MCF7 [20]): 67.28%
Activity (MCF7 [21]): 21.6%
Activity (MCF7 [22]): 0.39%
Activity (MCF7 [23]): 0.87%
Activity (MCF7 [24]): 44.6%
Activity (MCF7 [25]): 0.71%
Activity (MCF7 [26]): 43.6%
Activity (MCF7 [27]): 44.4%
Activity (MCF7 [28]): 0.68%
Activity (MCF7 [29]): 38%
